We go through 1 compound from patent US8314092B2, “Substituted [(5H-pyrrolo[2,1-c][1,4]benzodiazepin-11-yl)piperazin-1-yl]-2,2-dimethylpropanoic acid compounds as dual activity H1 inverse agonists/5-HT2A antagonists” (Eli Lilly and Company, priority 2011, dated 2012).

As usually defined, the Ki is a measure of affinity in units of concentration, obtained from inhibition or displacement. What is called IC50 is the midpoint of a concentration-inhibition curve.

Experiment [1] addresses T1, recombinant 5-HT2A receptor (human) (Homo sapiens, UniProt P28223).
T1 construct: expressed in transfected cells
Put plainly: 5-HT2A competition binding assay ([3H]-Ketanserin SPA). On the procedure: [^3H]-Ketanserin binding experiments are carried out in SPA 96-well format. Membranes used in this assay are prepared from AV-12 cells stably expressing recombinant 5-HT2A receptor (human). The incubation is initiated by the addition of a mixture of WGA YSi SPA beads (1 mg/well, Perkin Elmer (MA, USA), RPNQ0011) and 2 μg membranes to assay buffer (67 mM Tris, 0.5 mM EDTA; pH 7.6) containing 3.1 nM [^3H]-Ketanserin and varying concentrations of the test compound (10 point concentration response curves). Non-specific binding is determined in the presence of 20 μM 1-(1-Naphthyl)piperazine. Samples were incubated for four hours at room temperature (22° C.) and then read in a Microbeta Trilux.
Curves are evaluated using a 4-parameter logistic nonlinear equation to obtain the concentration of competitor causing 50% inhibition of radioligand binding (IC50). Equilibrium dissociation constants (Ki) are calculated according to the equation Ki=IC50/(1+L/Kd), where L equals the concentration of radioligand used in the experiment and Kd equals the equilibrium dissociation constant of the radioligand for the receptor, determined from standard saturation analysis or homologous competition experiments. Reported values for Ki, where n values are indicated, are shown as geometric mean±the standard error of the mean (SEM), with the number of replicate determinations indicated by n. […]

In experiment [2] the test system is native GABAA receptors. Put plainly: GABAA antagonism using native receptors in primary neuronal cultures (FLIPR calcium flux). It counts as cell-based, rat. As to conditions: against 10 μM GABA. The method, then: Activity of compounds on native GABAA receptors is evaluated by monitoring calcium fluxes using a 96 well format FLIPR® system (Fluorometric Imaging Plate Reader (FLIPR®, Molecular Devices). Briefly, cortical embryonic neurons are dissociated from E18 rat embryos and plated at optimum density into black-walled, transparent bottom poly-D-lysine coated 96-well FLIPR® plates. After loading the cells with a calcium sensitive dye (Fluo-4-AM, Molecular Devices), the cells are bathed in a solution containing low chloride (chloride replaced by gluconate). Under these conditions activation of GABAA receptors causes an efflux of chloride ions (in the direction of the chemical gradient), which results in membrane depolarization and consequently activation of voltage gated calcium channels (VGCCs). Calcium influx through VGCCs is recorded and analysed offline using the FLIPR® system. For a pharmacological validation of the assay, concentration response curves (CRC) are recorded for the standard agonist (GABA) and standard antagonist (Gabazine). […]
The antagonist effects of compounds are quantified using 10-point dose response curves by comparing the peak fluorescent responses to the agonist GABA in the presence and absence of compound. […] Antagonist effects are calculated as a percent of the assay window. […]
For orientation: Calcium flux is commonly read through the fluorescence of an indicator in the cells.

In experiment [3] the target is Dopamine D1 (Homo sapiens, UniProt P21728). In words: Dopamine D1 binding. The source says:
(§1) Further, the compounds of the invention may be tested in binding assays and functional activity assays by well known methods for other physiologically important receptors such as, but not limited to, the hERG channel, other serotonin receptors (specifically 5-HT1A, 5-HT1B, 5-HT1D, 5-HT1E, 5-HT1F receptors, lack of agonist activity at 5-HT2B receptors, 5-HT2C, 5-HT4, 5-HTS, 5-HT6, and 5-HT7 receptors), muscarinic receptors, dopaminergic receptors (specifically D1, D2, and D3), GABAA receptors, adrenergic receptors and monoamine transporters. Certain exemplified compounds are tested at these receptors and are shown to lack significant activity.

Experiment [4] has as its target Dopamine D3 (Homo sapiens, UniProt P35462). In words: Dopamine D3 binding.
Description: as §1

For experiment [5], the target named is 5-HT1D (Homo sapiens, UniProt P28221). Put plainly: 5-HT1D binding.
Description: as §1

The target of experiment [6] is 5-HT1E (Homo sapiens, UniProt P28566). Put plainly: 5-HT1E binding.
Description: as §1

For experiment [7], the target named is 5-HT6 (Homo sapiens, UniProt P50406). Put plainly: 5-HT6 binding.
Description: as §1

Experiment [8] addresses Adrenergic alpha2A (Homo sapiens, UniProt P08913). Put plainly: Adrenergic alpha2A binding.
Description: as §1

Experiment [9] concerns the target Serotonin Transporter (Homo sapiens, UniProt P31645). Put plainly: Serotonin transporter assay. As to conditions: dihydrochloride. It counts as binding.
Description: as §1

Experiment [10] concerns the target Dopamine Transporter (Homo sapiens, UniProt Q01959). Put plainly: Dopamine transporter assay. Type of experiment: binding. As to conditions: dihydrochloride.
Description: as §1

In experiment [11] the target is T2, 5-HT2A receptor (Mus musculus, UniProt P35363).
T2 construct: male C57BL/6J mice (20-25 g, Charles River); from tissue; host or cells: living C57BL/6J mouse (whole animal, behavioural read-out)
Put plainly: Inhibition of DOI induced headshake activity. As to conditions: mice, 10 mg/kg PO, 60 minutes pre-treatment, DOI 3 mg/kg. It counts as in vivo. On the procedure: (see for example Bartoszyk G D, van Amsterdam C, Böttcher H, Seyfried C A. EMD 281014, a new selective serotonin 5-HT2A receptor antagonist. Eur J Pharmacol. 2003 473: 229-230.) Briefly, male C57BL/6J mice (20-25 g, Charles River) are housed in standard housing conditions (32 mice in a large IVC cage, 07.00 to 19.00 light phase, constant temperature (19-23° C.) and humidity (50%+/−10), ad lib food and water). Mice received either vehicle (0.25% Methyl cellulose), DOI (3 mg/kg in saline) or test compound at 10 mg/kg PO plus DOI (3 mg/kg in saline). Test compounds are individually evaluated in groups of four per experiment with n=4 for each compound, together with vehicle and DOI+vehicle (n=8). After a test compound pre-treatment time of 60 minutes the mice receive either vehicle (saline) or 3 mg/kg DOI dosed subcutaneously, and are then placed into clear perspex observation chambers. […] The data is analyzed using an ANOVA and post-hoc Dunnet's Test. Exemplified compounds are tested essentially as described and are found to inhibit the DOI induced headshake response at greater than 90% at 10 mg/kg. The compound of example 13 is tested essentially as described and is found to inhibit the DOI induced headshake response at 100% at 10 mg/kg.

Counter-ions that a name gives are not always drawn.

T2 sequence (P35363 whole entry): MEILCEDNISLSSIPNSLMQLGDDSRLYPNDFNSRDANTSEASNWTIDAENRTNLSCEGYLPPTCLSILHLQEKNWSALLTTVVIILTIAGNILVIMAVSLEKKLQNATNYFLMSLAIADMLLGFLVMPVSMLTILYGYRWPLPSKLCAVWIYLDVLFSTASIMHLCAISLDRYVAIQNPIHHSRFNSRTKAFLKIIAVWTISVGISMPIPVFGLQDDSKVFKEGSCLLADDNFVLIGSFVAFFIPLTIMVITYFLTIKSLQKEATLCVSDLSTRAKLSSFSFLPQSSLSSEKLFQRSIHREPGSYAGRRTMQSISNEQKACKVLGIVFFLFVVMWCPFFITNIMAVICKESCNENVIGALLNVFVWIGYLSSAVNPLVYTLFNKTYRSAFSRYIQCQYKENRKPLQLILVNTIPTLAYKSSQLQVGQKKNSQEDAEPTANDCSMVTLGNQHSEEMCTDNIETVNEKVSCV
Chain of Adrenergic alpha2A (P08913 whole entry): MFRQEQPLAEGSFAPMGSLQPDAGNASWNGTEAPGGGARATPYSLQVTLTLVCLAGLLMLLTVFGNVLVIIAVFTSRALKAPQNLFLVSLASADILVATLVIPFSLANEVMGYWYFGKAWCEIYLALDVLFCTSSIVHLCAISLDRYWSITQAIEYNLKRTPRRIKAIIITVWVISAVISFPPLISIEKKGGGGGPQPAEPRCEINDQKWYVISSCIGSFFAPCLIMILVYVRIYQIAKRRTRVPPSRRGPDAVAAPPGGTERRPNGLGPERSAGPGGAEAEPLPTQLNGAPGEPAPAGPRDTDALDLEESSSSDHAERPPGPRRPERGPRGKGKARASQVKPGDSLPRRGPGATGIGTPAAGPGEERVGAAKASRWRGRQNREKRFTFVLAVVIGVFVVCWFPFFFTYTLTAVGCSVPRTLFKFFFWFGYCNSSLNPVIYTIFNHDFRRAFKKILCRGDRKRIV
Chain of 5-HT1E (P28566 whole entry, species assumed): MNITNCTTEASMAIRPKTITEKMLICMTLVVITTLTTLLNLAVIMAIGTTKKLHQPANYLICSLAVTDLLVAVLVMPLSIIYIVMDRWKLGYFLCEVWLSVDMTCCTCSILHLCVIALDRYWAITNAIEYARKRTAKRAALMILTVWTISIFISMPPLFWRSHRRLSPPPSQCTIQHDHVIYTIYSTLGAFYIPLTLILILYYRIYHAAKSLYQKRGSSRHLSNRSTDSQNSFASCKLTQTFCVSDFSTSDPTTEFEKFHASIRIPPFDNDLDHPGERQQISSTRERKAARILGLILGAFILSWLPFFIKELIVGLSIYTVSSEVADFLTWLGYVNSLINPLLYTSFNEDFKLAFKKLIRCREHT
Chain of Serotonin Transporter (P31645 whole entry): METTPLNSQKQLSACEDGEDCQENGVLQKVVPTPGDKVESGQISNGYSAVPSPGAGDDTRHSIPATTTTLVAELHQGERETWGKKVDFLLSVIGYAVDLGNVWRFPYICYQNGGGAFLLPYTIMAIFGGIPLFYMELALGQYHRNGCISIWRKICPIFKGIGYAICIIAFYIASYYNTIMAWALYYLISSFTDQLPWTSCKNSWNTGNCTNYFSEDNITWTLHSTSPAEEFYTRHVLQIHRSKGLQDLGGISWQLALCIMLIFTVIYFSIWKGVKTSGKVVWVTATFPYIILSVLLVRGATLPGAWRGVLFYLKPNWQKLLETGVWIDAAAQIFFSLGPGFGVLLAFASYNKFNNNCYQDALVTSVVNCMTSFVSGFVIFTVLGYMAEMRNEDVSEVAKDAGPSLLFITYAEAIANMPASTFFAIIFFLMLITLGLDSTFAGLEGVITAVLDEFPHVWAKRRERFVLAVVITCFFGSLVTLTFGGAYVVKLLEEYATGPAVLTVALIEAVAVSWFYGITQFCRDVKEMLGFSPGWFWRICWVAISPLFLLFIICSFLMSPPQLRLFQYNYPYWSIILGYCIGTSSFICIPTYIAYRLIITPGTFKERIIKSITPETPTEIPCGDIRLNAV
Chain of 5-HT6 (P50406 whole entry, species assumed): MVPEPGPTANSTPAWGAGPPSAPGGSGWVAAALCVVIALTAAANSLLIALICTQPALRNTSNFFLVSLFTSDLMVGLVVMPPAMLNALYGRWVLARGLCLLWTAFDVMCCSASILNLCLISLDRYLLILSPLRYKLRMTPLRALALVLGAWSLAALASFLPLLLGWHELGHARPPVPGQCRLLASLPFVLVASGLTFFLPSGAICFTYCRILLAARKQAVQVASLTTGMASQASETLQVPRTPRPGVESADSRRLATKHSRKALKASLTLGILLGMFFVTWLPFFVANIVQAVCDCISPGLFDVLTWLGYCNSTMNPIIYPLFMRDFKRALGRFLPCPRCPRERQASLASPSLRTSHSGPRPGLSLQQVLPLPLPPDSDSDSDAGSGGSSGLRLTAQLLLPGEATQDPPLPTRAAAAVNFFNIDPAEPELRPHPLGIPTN
Chain of 5-HT1D (P28221 whole entry, species assumed): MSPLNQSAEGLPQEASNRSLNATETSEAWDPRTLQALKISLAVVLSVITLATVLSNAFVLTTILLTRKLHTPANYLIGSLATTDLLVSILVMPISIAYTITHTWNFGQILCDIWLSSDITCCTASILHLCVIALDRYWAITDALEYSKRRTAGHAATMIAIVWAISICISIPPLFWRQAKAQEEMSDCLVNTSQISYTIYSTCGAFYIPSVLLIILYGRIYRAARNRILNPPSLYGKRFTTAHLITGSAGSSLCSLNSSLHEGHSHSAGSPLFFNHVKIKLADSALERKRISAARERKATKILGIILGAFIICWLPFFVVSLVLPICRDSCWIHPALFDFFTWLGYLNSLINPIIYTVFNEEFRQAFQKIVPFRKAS
Chain of Dopamine Transporter (Q01959 whole entry): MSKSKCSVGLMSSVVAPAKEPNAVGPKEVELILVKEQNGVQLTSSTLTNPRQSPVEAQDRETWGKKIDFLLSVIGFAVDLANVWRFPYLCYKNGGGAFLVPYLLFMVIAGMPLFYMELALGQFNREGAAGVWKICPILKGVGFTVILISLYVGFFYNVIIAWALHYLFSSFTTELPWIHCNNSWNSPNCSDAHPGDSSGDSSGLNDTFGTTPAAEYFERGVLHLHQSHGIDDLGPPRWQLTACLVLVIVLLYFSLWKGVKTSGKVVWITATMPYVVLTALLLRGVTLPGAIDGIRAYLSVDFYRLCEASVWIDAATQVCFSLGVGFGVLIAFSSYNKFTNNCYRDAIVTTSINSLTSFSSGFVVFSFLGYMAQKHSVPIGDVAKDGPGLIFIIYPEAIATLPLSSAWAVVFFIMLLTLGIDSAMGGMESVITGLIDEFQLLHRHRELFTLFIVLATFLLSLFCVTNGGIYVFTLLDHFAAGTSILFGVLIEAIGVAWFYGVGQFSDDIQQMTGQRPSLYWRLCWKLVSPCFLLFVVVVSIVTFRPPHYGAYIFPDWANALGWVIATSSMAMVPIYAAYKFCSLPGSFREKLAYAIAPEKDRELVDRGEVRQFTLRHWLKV
Chain of Dopamine D3 (P35462 whole entry): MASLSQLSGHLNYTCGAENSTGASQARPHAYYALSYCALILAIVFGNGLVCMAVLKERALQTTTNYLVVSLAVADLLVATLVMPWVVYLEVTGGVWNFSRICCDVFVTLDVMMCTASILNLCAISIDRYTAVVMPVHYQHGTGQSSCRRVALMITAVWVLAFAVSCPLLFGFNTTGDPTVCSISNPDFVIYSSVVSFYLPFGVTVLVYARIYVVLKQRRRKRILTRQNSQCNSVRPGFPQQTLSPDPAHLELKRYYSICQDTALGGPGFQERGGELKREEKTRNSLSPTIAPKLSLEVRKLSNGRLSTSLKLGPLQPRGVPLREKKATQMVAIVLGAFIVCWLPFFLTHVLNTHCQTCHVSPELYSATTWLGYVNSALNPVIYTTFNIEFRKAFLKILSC
T1 sequence (P28223 whole entry): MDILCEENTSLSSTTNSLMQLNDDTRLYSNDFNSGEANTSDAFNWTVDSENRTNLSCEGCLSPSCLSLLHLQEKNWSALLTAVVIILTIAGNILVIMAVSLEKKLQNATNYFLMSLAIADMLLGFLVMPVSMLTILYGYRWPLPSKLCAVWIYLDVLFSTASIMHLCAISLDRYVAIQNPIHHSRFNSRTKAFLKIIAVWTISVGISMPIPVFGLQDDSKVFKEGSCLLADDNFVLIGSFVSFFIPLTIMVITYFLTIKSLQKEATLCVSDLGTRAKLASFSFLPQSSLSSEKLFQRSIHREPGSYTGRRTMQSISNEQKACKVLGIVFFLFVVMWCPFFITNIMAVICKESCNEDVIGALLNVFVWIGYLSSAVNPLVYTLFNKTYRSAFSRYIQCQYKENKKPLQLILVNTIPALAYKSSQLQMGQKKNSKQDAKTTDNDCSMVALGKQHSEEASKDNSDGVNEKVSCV
Chain of Dopamine D1 (P21728 whole entry): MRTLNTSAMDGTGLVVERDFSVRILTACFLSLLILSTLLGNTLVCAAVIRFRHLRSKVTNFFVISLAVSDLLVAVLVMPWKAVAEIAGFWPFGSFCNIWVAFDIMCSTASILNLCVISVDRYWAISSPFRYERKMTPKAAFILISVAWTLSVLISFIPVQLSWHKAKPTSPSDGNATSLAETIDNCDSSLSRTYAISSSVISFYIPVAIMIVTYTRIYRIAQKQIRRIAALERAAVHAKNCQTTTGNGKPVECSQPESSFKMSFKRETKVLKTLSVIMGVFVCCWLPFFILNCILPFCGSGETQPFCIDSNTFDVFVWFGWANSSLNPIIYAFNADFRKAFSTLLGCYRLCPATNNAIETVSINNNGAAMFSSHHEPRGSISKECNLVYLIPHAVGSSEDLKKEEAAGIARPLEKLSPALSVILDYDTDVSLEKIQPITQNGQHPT

With `Cc1cc2n(c1)Cc1cc(Cl)ccc1N=C2N1CCN(CC(C)(C)C(=O)O)CC1` [Example 13, 3-[4-(7-Chloro-2-methyl-5H-pyrrolo[2,1-c][1,4]benzodiazepin-11-yl)piperazin-1-yl]-2,2-dimethylpropanoic acid dihydrochloride], the Ki in experiment [1] was 0.0632 µM; in [3] it was 1.86 µM; in experiment [4] it was > 4.11 µM; in experiment [5] it was > 8.55 µM; in [6] it was > 5.37 µM; in experiment [7] it was > 5.83 µM. Besides, in [8], the Ki is > 8.47 µM. The IC50 in [2] was > 50 µM. Further, the “Serotonin Transporter” value in [9] is >515. In experiment [10], the “Dopamine Transporter” value is recorded as >880. The “inhibition of DOI induced headshake response” value in [11] came to 100%.
